Assay [1] deals with T1, Serine/threonine-protein kinase mTOR (Homo sapiens, UniProt P42345). The assay is described as follows: Inhibition of mTOR in human MDA-MB-468 cells assessed as reduction in total 4EBP1 protein level at 0.5 to 2 uM after 24 hrs by Western blot analysis. The assay is classed as cell-based. To be noted: dose 0.5-2 µM. For orientation: A western blot detects proteins with antibodies after separation by electrophoresis.

The test system of assay [2] is MDA-MB-231. Kind of assay: Induction of autophagy in human MDA-MB-231 cells assessed as MDC positive ratio at 1 uM incubated for 6 hrs by MDC staining based flow cytometry analysis. The assay is classed as functional.
The test system of assay [3] is MDA-MB-231. Kind of assay: Induction of autophagy in human MDA-MB-231 cells expressing mRFP-EGFP-LC3B at 5 uM measured after 24 hrs by fluorescence microscopic analysis. The assay is classed as functional, cell-based.
For assay [4], the system named is MDA-MB-468. The assay is described as follows: Induction of apoptosis in human MDA-MB-468 cells assessed as late apoptic cells at 5 uM after 24 hrs by AnnexinV-FITC/PI staining based flow cytometry analysis (reference value: 2.84%). The assay is classed as functional. In general terms: A flow cytometer gives signals particle by particle.
Assay [5] concerns MDA-MB-468. The assay is described as follows: Induction of apoptosis in human MDA-MB-468 cells assessed as decrease in Bcl2 level at 2.5 to 10 uM incubated for 24 hrs by western blot analysis. It counts as functional, cell-based. The settings on record: dose 2.5-10 µM.
Assay [6] concerns the target T1, Serine/threonine-protein kinase mTOR. The assay is described as follows: Inhibition of mTOR in human MDA-MB-468 cells assessed as reduction in P70S6 protein level at 0.5 to 2 uM after 24 hrs by Western blot analysis. It counts as cell-based. To be noted: dose 0.5-2 µM.

Each structure is given as a SMILES string. The source made the active and inactive calls. No cut-off for these calls is given here.

Consider `C/C(=N\NC(=O)c1cccc(Br)c1)c1ccc(C(=O)Nc2nc3ccccc3[nH]2)cc1`, for which the inhibition result in assay [1] and in assay [6] was “Active” in each case. In addition, the Activity with MDA-MB-231 [2] came out at 25.67%; with MDA-MB-468 [4] it was 5.16%. Further, the outcome in the assay with MDA-MB-231 [3] and with MDA-MB-468 [5] was Active.
